Results taken from patent US20250230138A1, “COMPOUNDS HAVING A T-STRUCTURE FORMED BY AT LEAST FOUR CYCLES FOR USE IN THE TREATMENT OF CANCER AND OTHER INDICATIONS” (TheRas, Inc., priority 2022, published 2025).
Where two headings read alike, the source gives them in different places.

Assays:
[1] = target: Cys242 in human PIK3CA (157-299) (Homo sapiens (Human), UniProt P42336); assay: Covalent modification assay using MALDI-TOF MS; type: biochemical; conditions: 4 h reaction time point; 3.33 μM protein target, 1:7.5 protein to compound ratio (compounds 1-852)
Summary of the method: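 PIK3CA (157-299) at 3.33 μM or 1 μM in 20 mM HEPES, 150 mM NaCl, 2 mM MgCl2, pH 7.3 was incubated with compound (from 10 mM DMSO stocks) in the dark at room temperature for 15 min, 30 min, 2 h or 4 h. Linear-mode MALDI-TOF peak heights gave percent modification.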

pAKT in BT474 cells = assay: Cell-based pAKT HTRF assay in BT474 cells; conditions: BT474 cells, 4 hr incubation, Compounds 10-999, read-out: pAKT inhibition IC50 in BT474 cells
Summary of the method: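 BT474 cells in DMEM/10% FBS were treated the day after seeding with a 9-point, 3-fold compound series from 3 μM (0.25% DMSO) for 4 hr. Lysates were mixed with d2 and Eu cryptate anti-pAKT antibodies and incubated 4-24 h at room temperature. HTRF was read with excitation at 320 nm and emission at 615 nm.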

Chain of Cys242 in human PIK3CA (157-299) (P42336 157-299): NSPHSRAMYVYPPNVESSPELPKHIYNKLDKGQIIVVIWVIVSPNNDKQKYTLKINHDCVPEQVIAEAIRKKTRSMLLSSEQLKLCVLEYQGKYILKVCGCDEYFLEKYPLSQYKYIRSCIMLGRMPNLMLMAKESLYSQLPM

Q: Which results are given for `C=CC(=O)N1CCc2nc(-c3nc(-c4cnc5c(c4)CN(C)CC5)c4ccsc4c3-c3c(F)cc(F)cc3OC(C)C)sc2C1` [Compound 309]?
A: % of modification [1]: A (percent of modification of PIK3CA protein ≥75%); IC50 (pAKT in BT474 cells): < 100 nM

Q: What does the source list for `C=C(F)C(=O)N1CCn2nc(-c3nc(-c4cnc5c(c4)CN(C)CC5)c4ccsc4c3-c3c(F)cc(F)cc3OC(C)C)nc2C1` [Compound 310]?
A: % of modification [1]: A (percent of modification of PIK3CA protein ≥75%); IC50 (pAKT in BT474 cells): < 100 nM

Q: Which “% of modification” value [1] does the source give for `C=CC(=O)N1CCc2nc(-c3nc(-c4ccc5c(c4)CNC5=O)c4ccsc4c3-c3c(F)cc(F)cc3OC(C)C)sc2C1` [Compound 311, 5-[7-(2,4-difluoro-6-isopropoxy-phenyl)-6-(5-prop-2-enoyl-6,7-dihydro-4H-thiazolo[5,4-c]pyridin-2-yl)thieno[3,2-c]pyridin-4-yl]isoindolin-1-one] here?
A: A (percent of modification of PIK3CA protein ≥75%)

Q: And the IC50 (pAKT in BT474 cells; Homo sapiens, BT-474)?
A: < 100 nM

Q: How did the “% of modification” value [1] turn out when `C=CC(=O)N1CCc2nc(-c3nc(-c4ccc5c(c4)CCN(C)C5)c4ccsc4c3-c3c(F)cc(F)cc3OC(C)C)sc2C1` [Compound 312] was run?
A: A (percent of modification of PIK3CA protein ≥75%)

Q: What about the IC50 (pAKT in BT474 cells) of the same compound?
A: < 100 nM

Q: What does the source list for `C=CC(=O)N1CCn2nc(-c3nc(-c4cnn(C)c4)c4ccsc4c3-c3ccc(F)cc3OC(C)C)c(OC)c2C1` [Compound 313]?
A: % of modification [1]: A (percent of modification of PIK3CA protein ≥75%); IC50 (pAKT in BT474 cells): < 100 nM

Q: How did the “% of modification” value [1] turn out when `C=C(F)C(=O)N1CCn2nc(-c3nc(-c4ccc5c(c4)CCN(C)C5)c4ccsc4c3-c3c(F)cc(F)cc3OC(C)C)nc2C1` [Compound 314] was run?
A: A (percent of modification of PIK3CA protein ≥75%)

Q: What about the IC50 (pAKT in BT474 cells) of the same compound?
A: < 100 nM

Q: Which results are given for `C=C(F)C(=O)N1CCn2nc(-c3nc(-c4ccc5c(c4)CNC5=O)c4ccsc4c3-c3c(F)cc(F)cc3OC(C)C)nc2C1` [Compound 315]?
A: % of modification [1]: A (percent of modification of PIK3CA protein ≥75%); IC50 (pAKT in BT474 cells): < 100 nM

Q: With `C=CC(=O)N1CCc2ncc(-c3nc(-c4ccc5c(c4)CNC5=O)c4ccsc4c3-c3ccc(F)cc3OC(C)C)cc2C1` [Compound 316] as the compound, how does the “% of modification” value [1] read?
A: A (percent of modification of PIK3CA protein ≥75%)

Q: What about the IC50 (pAKT in BT474 cells) of the same compound?
A: < 100 nM

Q: Which results are given for `C=CC(=O)N1CCn2nc(-c3nc(-n4cc(C)cn4)c4ccsc4c3-c3ccc(F)cc3OC(C)C)cc2C1` [Compound 317, 1-[2-[7-(4-fluoro-2-isopropoxy-phenyl)-4-(4-methylpyrazol-1-yl)thieno[3,2-c]pyridin-6-yl]-6,7-dihydro-4H-pyrazolo[1,5-a]pyrazin-5-yl]prop-2-en-1-one]?
A: % of modification [1]: A (percent of modification of PIK3CA protein ≥75%); IC50 (pAKT in BT474 cells; Homo sapiens, BT-474): < 100 nM

Q: `C=CC(=O)N1CC[C@H](n2ccc(-c3nc(-c4cnn(C)c4)c4ccsc4c3-c3ccc(F)cc3OC(C)C)n2)C1` [Compound 318] was tested. Which “% of modification” value [1] did it give?
A: A (percent of modification of PIK3CA protein ≥75%)

Q: What about the IC50 (pAKT in BT474 cells) of the same compound?
A: < 100 nM

Q: What does the source list for `C=CC(=O)N1CCc2ncc(-c3nc(-c4cnc5c(c4)CN(C)CC5)c4ccsc4c3-c3ccc(F)cc3OC(C)C)cc2C1` [Compound 319]?
A: % of modification [1]: A (percent of modification of PIK3CA protein ≥75%); IC50 (pAKT in BT474 cells): < 100 nM

Q: Which results are given for `C=CC(=O)N1CCn2nc(-c3nc(-c4cnn(C)c4)c4ccsc4c3-c3ccc(F)cc3OC(C)C)c(C)c2C1` [Compound 320]?
A: % of modification [1]: A (percent of modification of PIK3CA protein ≥75%); IC50 (pAKT in BT474 cells): < 100 nM

Q: Which “% of modification” value [1] does the source give for `C=C(F)C(=O)N1CCn2nc(-c3nc(-c4ccc5c(c4)CNC5=O)c4ccsc4c3-c3c(F)cc(F)cc3OCC)cc2C1` [Compound 321] here?
A: B (50%<percent of modification <75%)

Q: What about the IC50 (pAKT in BT474 cells) of the same compound?
A: < 100 nM

Q: `C=CC(=O)N1CCn2nc(-c3nc(-c4cnn(C)c4)ccc3-c3ccc(F)cc3OCCOC)cc2C1` [Compound 322, 1-[2-[3-[4-fluoro-2-(2-methoxyethoxy)phenyl]-6-(1-methylpyrazol-4-yl)-2-pyridyl]-6,7-dihydro-4H-pyrazolo[1,5-a]pyrazin-5-yl]prop-2-en-1-one] was tested. Which “% of modification” value [1] did it give?
A: C (25%≤percent of modification <50%)

Q: And the IC50 (pAKT in BT474 cells; Homo sapiens, BT-474)?
A: > 3000 nM

Q: Which results are given for `C=CC(=O)N1CCc2ncc(-c3nc(-c4cnn(C)c4)c4ccsc4c3-c3c(F)cc(F)cc3OC(C)C)cc2C1` [Compound 324]?
A: % of modification [1]: A (percent of modification of PIK3CA protein ≥75%); IC50 (pAKT in BT474 cells): < 100 nM
